Laboratory results from US20120059021A1, “COMPOSITIONS AND METHODS FOR TREATING CANCER AND METHODS FOR PREDICTING A RESPONSE TO SUCH TREATMENTS” (UNIVERSITY OF WASHINGTON, priority 2008, published 2012).
Entries after “also recorded” stand apart in the source; their conditions may differ. Where a SMILES comes first, the peptide text is derived from it. The star is where a group is joined. Cbz = O=C(OCc1ccccc1)*; CH2F = FC*

Tests used:
Wnt/β-catenin signaling [1] = test: β-catenin activated reporter (BAR) luciferase assay in A375 melanoma cells; details: for Wnt/β-catenin signaling (BAR activity): A375, in the presence of WNT3A
Description: By way of non-limiting example, Wnt/β-catenin signaling can be measured using the BAR reporter described in detail elsewhere herein. Briefly, the BAR (β-catenin activated reporter) is a lentiviral plasmid which provides for expression of luciferase in response to Wnt/β-catenin signaling. Output can be measured with an automated luminescence plate reader.
Detailed information on the β-catenin activated reporter (BAR) has been previously described (23). Briefly, the β-catenin activated reporter (pBAR) is a lentiviral plasmid that contains 12 TCF/LEF binding sites (5′-[sequence]-3′) each separated by distinct 5 base-pair linkers upstream of a minimal promoter and the firefly luciferase open reading frame. The reporter also contains a separate PGK promoter that constitutively drives the expression of a puromycin resistance gene for mammalian cell selection. […] PLX4720 was purchased from Symansis (Australia cat# SY-PLX4720). CHIR99021 was purchased from Axon MedChem (Gronigen, Netherlands catalog #Axon1386). Z-VAD-FMK was purchased from R&D systems (Minneapolis, Minn. cat# FMKSP01).
Low throughput BAR reporter assays. Cells were plated in 96-well plates.

ppERK1/2 = test: Immunoblot for dual-phosphorylated ERK1/2 in melanoma cells; format: cell-based, human; details: for dual-phosphorylated ERK1/2 (ppERK1/2): A375
Description: By way of non-limiting example, inhibition of ERK signaling can be measured by determining the level of dual-phosphorylated ERK1/2 (ppERK1/2) as described in detail elsewhere herein. In brief, the level of ppERK1/2 can be detected by immunoblot assay.

GSK3β = test: Immunoblot for activating auto-phosphorylation of GSK3β in A375 cells; format: cell-based, human
A375 cells = test: Immunoblot of apoptosis markers (cleaved caspase-3, cleaved PARP1) in A375 cells; format: cell-based, human
AXIN1 = test: Immunoblot of steady-state AXIN1 levels in melanoma cells; format: cell-based, human; details: for levels of AXIN1 following treatment with WNT3A and PLX4720: A375, 10 μM, 8 hours, WNT3A CM and 2 μM PLX4720
β-catenin = test: Immunoblot for β-catenin phosphorylation at Ser33/Ser37/Thr41 in A375 cells; format: cell-based, human
Wnt/β-catenin signaling [2] = test: WNT3A-mediated reporter activity in primary melanocytes; format: cell-based, human; details: HEMs
ERK1/2 phosphorylation = ERK1/2 phosphorylation in human epidermal melanocytes; format: cell-based; details: HEMs
Description: Cell Lines. The human melanoma cell lines A375, A2058 and Me1624 were obtained from Cassian Yee (Fred Hutchinson Cancer Research Institute; Seattle, Wash.). The human melanoma cell lines COLO-829, SKMEL28, SKMEL5 were purchased from ATCC (Manassas, Va.). Human Epidermal Melanocytes, adult, lightly pigmented donor, (HEMa-LP) (C0245C) were purchased from Invitrogen (Carlsbad, Calif.). Stable BAR cell lines were generated as previously described (23). BAR luciferase cell lines were also infected with a lentivirus carrying Renilla luciferase driven by a constitutive EFlalpha promoter.
Cell Culture. The human melanoma lines A375, A2058 were cultured in DMEM supplemented with 5% FBS and 1% antibiotic. The human melanoma lines SK-MEL-5 and SK-MEL-28 were grown in EMEM supplemented with 10% FBS and 1% antibiotic. The human melanoma lines COLO-829 and MEL-624 were grown in RPMI supplemented with 10% FBS and 1% antibiotic HEMa-LP cells were cultured in medium 254 supplemented with 1% HMGS and 1% antibiotic (Invitrogen Carlsbad, Calif.). Synthetic siRNAs were transfected into cultured cells at a final concentration of 20 nM using RNAiMAX (Invitrogen; Grand Island, N.Y.).

A375 = test: qPCR of endogenous Wnt target gene AXIN2, A375; format: cell-based, human; details: A375, stimulated Wnt/β-catenin signaling
Description: RNA purification and qRT-PCR analysis. RNA was purified using the RNeasy kit following the manufacturer's protocol (Qiagen; Maryland, Md.). cDNA was synthesized using RevertAid™ M-MuLV Reverse Transcriptase (Fermentas; Ontario, CAN). Light Cycler FastStart DNA Master SYBR Green1 (Roche; Mannheim, Germany) was used for real-time PCR as previously described (53). Quantitative PCR results presented in the manuscript are averages of a minimum of three biologic replicates.

BAD and Bim (BCL2L11) = test: Immunoblot of BH3-only proteins BAD and Bim in A375 cells; format: cell-based, human; details: A375, addition of Z-VAD-FMK, 24 hours
[3] = XAV939 in the presence of U0126 or PLX4720

Which “Wnt/β-catenin signaling (BAR activity)” value (Wnt/β-catenin signaling [1]) does the source give for `Cn1cnc2c(F)c(Nc3ccc(Br)cc3Cl)c(C(=O)NOCCO)cc21` [AZD6244, 6-(4-Bromo-2-chloro-phenylamino)-7-fluoro-3-methyl-3H-benzoimidazole-5-carboxylic acid (2-hydroxy-ethoxy)-amide] here?
The value was “synergistically enhanced Wnt/β-catenin activation”.

What about the “dual-phosphorylated ERK1/2 (ppERK1/2)” value (ppERK1/2) of the same molecule?
Its value is “inhibition of ppERK1/2”.

For `Cc1c[nH]c(-c2cnc(NCCNc3ccc(C#N)cn3)nc2-c2ccc(Cl)cc2Cl)n1` [CHIR99021, 6-[[2-[[4-(2,4-dichlorophenyl)-5-(5-methyl-1H-imidazol-2-yl)-2-pyrimidinyl]amino]ethyl]amino]-3-pyridinecarbonitrile], which “activating auto-phosphorylation of GSK3B” value (GSK3β) is on record?
Its value is “loss of the activating auto-phosphorylation at Tyr216”.

And the “apoptosis (cleaved caspase-3 immunoblot)” value (A375 cells; A375, 5 μM CHIR99021 and 2 μM PLX4720, 36 hours)?
Its value is “enhanced apoptosis in combination with PLX4720”.

Which “levels of AXIN1 following treatment with WNT3A and PLX4720” value (AXIN1) does the source give for `CC(C)C[C@@H](C=O)NC(=O)[C@H](CC(C)C)NC(=O)[C@H](CC(C)C)NC(=O)OCc1ccccc1` [MG132] (Cbz-Leu-Leu-Leu-aldehyde) here?
Its value is “increased the levels of AXIN1”.

Which “Wnt/β-catenin signaling (BAR activity)” value (Wnt/β-catenin signaling [1]) does the source give for `N#CC(=C(/N)Sc1ccccc1N)/C(C#N)=C(\N)Sc1ccccc1N` [U0126, 1,4-diamino-2,3-dicyano-1,4-bis [2-aminophenylthio]butadiene] here?
The value was “synergistically enhanced Wnt/β-catenin activation; also recorded: dose-dependent increase in stimulated Wnt/β-catenin signaling”.

And the “phosphorylation of β-catenin at GSK3β sites (Ser33/Ser37/Thr41)” value (β-catenin)?
The value was “decreased phosphorylation of β-catenin”.

And the Wnt/β-catenin signaling (Wnt/β-catenin signaling [2])?
Its Wnt/β-catenin signaling is “inhibited Wnt/β-catenin signaling”.

What about the “activating auto-phosphorylation of GSK3B” value (GSK3β) of the same molecule?
The value was “loss of the activating auto-phosphorylation of GSK3B at Tyr117”.

What about the “dual-phosphorylated ERK1/2 (ppERK1/2)” value (ppERK1/2) of the same molecule?
The value was “inhibition of ppERK1/2”.

And the ERK1/2 phosphorylation (ppERK1/2; six established melanoma lines harboring the BRAF^V600E mutation)?
The ERK1/2 phosphorylation was “inhibition of ERK1/2 phosphorylation”.

And the “steady-state levels of AXIN1” value (AXIN1; absence of rWnt3A)?
Its value is “slightly decreased”.

What about the “steady-state levels of AXIN1” value (AXIN1; presence of rWnt3A) of the same molecule?
Its value is “markedly diminished”.

And the ERK1/2 phosphorylation (ERK1/2 phosphorylation)?
The ERK1/2 phosphorylation was “inhibits ERK1/2 phosphorylation in a dose-dependent manner”.

What about the “levels of the endogenous Wnt/β-catenin target gene AXIN2” value (A375) of the same molecule?
The value was “dose-dependent increase”.

How did the “reversal of enhancement of Wnt/β-catenin signaling by MAPK inhibition” value (Wnt/β-catenin signaling [1]; [3]) turn out when `Oc1nc(-c2ccc(C(F)(F)F)cc2)nc2c1CSCC2` [XAV939] was run?
The value was “unable to completely reverse the enhancement of Wnt/β-catenin signaling by MAPK inhibition”.

And the “steady-state levels of AXIN1” value (AXIN1; XAV939, absence and presence of rWnt3A)?
Its value is “increases steady-state levels of AXIN1”.

What about the AXIN1 protein levels (AXIN1; [3]) of the same molecule?
The AXIN1 protein levels was “elevate AX1N1 protein levels to above baseline levels”.

Which results are given for `COC(=O)C[C@H](NC(=O)[C@H](C)NC(=O)[C@@H](NC(=O)OCc1ccccc1)C(C)C)C(=O)CF` [Z-VAD-FMK] (Cbz-Val-Ala-Asp(OMe)-CH2F)?
Wnt/β-catenin activation as measured by BAR (Wnt/β-catenin signaling [1]; A375, Z-VAD-FMK with WNT3A and 2 μM PLX4720, 24 hours): augments Wnt/β-catenin activation; apoptosis with WNT3A and PLX4720 (A375 cells; A375, Z-VAD-FMK): able to inhibit apoptosis; PARP1 cleavage induced by WNT3A and PLX4720 (A375 cells; A375, addition of Z-VAD-FMK, 24 hours): completely abolished; loss of steady-state AXIN1 with WNT3A and PLX4720 (AXIN1; A375, Z-VAD-FMK, 24 hours): did not affect the loss of steady-state AXIN1; increase in BimL and BimS with WNT3A and PLX4720 (BAD and Bim (BCL2L11)): not blocked

With `CCN(CC)CCCC(C)Nc1ccnc2cc(Cl)ccc12` (stereo not drawn) [chloroquine] as the molecule, how does the “levels of AXIN1 following treatment with WNT3A and PLX4720” value (AXIN1) read?
The value was “not”.
